Results taken from patent US12234211B2, “Cycloolefin substituted heteroaromatic compounds and their use” (HUTCHISON MEDIPHARMA LIMITED, priority 2017, dated 2025).

Experiments:
[1] = target: T1, IDH2-R140Q (Homo sapiens, UniProt P48735, R140Q); test: Fluorescent determination of IDH2-R140Q cell activity (2-HG in U87MGR140Q cells); type: cell-based; details: 72 hours incubation, read-out: IC50 (2-HG inhibition)
T1 construct: expressed in transfected cells
T1 sequence (P48735 40-452 R140Q): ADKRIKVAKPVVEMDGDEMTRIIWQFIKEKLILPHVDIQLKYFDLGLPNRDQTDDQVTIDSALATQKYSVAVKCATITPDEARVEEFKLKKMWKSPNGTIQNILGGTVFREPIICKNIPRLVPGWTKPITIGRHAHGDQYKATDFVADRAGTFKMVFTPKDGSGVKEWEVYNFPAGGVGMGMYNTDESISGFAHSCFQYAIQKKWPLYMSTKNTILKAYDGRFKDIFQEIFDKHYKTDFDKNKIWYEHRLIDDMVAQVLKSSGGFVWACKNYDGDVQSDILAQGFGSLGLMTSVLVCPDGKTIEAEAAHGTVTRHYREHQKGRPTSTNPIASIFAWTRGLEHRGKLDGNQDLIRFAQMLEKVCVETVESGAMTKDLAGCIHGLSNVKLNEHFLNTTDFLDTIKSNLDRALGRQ

[2] = target: T2, IDH1-R132H (Homo sapiens, UniProt O75874, R132H); test: Fluorescent determination of IDH1-R132H cell activity (2-HG in U87MGR132H cells); type: cell-based; details: 2-HG inhibition in U87MGR132H cells transfected with IDH1-R132H mutant plasmid
T2 construct: expressed in transfected cells; host or cells: U87MG cells (U87MGR132H)
T2 sequence (O75874 whole entry R132H): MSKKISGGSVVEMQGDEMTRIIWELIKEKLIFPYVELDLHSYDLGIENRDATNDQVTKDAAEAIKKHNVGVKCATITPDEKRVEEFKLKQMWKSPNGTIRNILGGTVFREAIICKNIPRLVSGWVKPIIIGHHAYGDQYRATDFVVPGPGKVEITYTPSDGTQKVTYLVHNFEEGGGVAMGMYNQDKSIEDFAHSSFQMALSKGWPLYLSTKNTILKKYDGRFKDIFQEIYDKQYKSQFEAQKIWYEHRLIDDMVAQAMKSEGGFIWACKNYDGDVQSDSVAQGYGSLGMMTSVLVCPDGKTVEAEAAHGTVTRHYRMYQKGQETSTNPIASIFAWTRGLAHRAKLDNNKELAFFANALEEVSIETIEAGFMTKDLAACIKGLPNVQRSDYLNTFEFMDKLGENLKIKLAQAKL

SMILES	IC50 [1]	IC50 [2]
CC(C)(C)ONc1nc(Nc2ccnc(Cl)c2)nc(C2=C(F)C(O)CCC2)n1 (stereo not shown) [Compound 47]	59 nM	5640 nM
CC(C)Nc1nc(NC2CC(F)(F)C2)nc(C2=C(F)C(O)CCC2)n1 (stereo not shown) [Compound 51]	125 nM	6040 nM
[2H]C([2H])([2H])C([2H])(Nc1nc(N[C@H](C)C(F)(F)F)nc(C2=C(F)C(O)CCC2)n1)C([2H])([2H])[2H] (stereo partly shown) [Compound 52]	229 nM	2240 nM
[2H]C([2H])([2H])C([2H])(Nc1nc(Nc2ccnc(C(F)(F)F)c2)nc(C2=C(F)C(O)CCC2)n1)C([2H])([2H])[2H] (stereo not shown) [Compound 54]	15 nM	1680 nM
CC(C)(C)ONc1nc(Nc2cc(C#N)ccn2)nc(C2=C(F)C(O)CCC2)n1 (stereo not shown) [Compound 60]	590 nM	> 10000 nM
CC(C)(C)ONc1nc(Nc2cc(Cl)ccn2)nc(C2=C(F)C(O)CCC2)n1 (stereo not shown) [Compound 61]	170 nM	> 10000 nM
CC(C)Nc1nc(Nc2ccc3ccccc3n2)nc(C2=C(F)C(O)CCC2)n1 (stereo not shown) [Compound 62]	1340 nM	2700 nM
CC(C)Nc1nc(Nc2ccc3c(cnn3C)c2)nc(C2=C(F)C(O)CCC2)n1 (stereo not shown) [Compound 64]	1630 nM	> 10000 nM
CC(C)Nc1nc(Nc2ccc3sncc3c2)nc(C2=C(F)C(O)CCC2)n1 (stereo not shown) [Compound 65]	152 nM	> 10000 nM
CC(C)(O)CNc1nc(Nc2ccn3nccc3c2)nc(C2=C(F)C(O)CCC2)n1 (stereo not shown) [Compound 67]	2370 nM	> 10000 nM
CC(C)(C)ONc1nc(Nc2ccnc(F)c2)nc(C2=C(F)C(O)CCC2)n1 (stereo not shown) [Compound 73]	64 nM	> 10000 nM
CC(C)Nc1nc(Nc2ccnc(F)c2)nc(C2=C(F)C(O)CCC2)n1 (stereo not shown) [Compound 74]	34 nM	7440 nM
CC(C)(C)ONc1nc(Nc2cc(C(F)(F)F)ncn2)nc(C2=C(F)C(O)CCC2)n1 (stereo not shown) [Compound 75]	218 nM	> 10000 nM
CC(C)CNc1nc(N[C@H](C)C(F)(F)F)nc(C2=C(F)C(O)CCC2)n1 (stereo partly shown) [Compound 78]	69 nM	1410 nM
C[C@@H](Nc1nc(NCC(F)(F)F)nc(C2=C(F)C(O)CCC2)n1)C(F)(F)F (stereo partly shown) [Compound 79]	106 nM	1300 nM
C[C@@H](Nc1nc(NCC2CC2)nc(C2=C(F)C(O)CCC2)n1)C(F)(F)F (stereo partly shown) [Compound 80]	79 nM	2700 nM
CCCNc1nc(N[C@H](C)C(F)(F)F)nc(C2=C(F)C(O)CCC2)n1 (stereo partly shown) [Compound 81]	99 nM	3570 nM
C[C@@H](Nc1nc(N[C@H](C)C(F)(F)F)nc(C2=C(F)C(O)CCC2)n1)C(F)(F)F (stereo partly drawn) [Compound 82, (*)3-(4,6-Bis(((R)-1,1,1-trifluoropropan-2-yl)amino)-1,3,5-triazin-2-yl)-2-fluorocyclohex-2-en-6,6-D2-1-ol]	75 nM	181 nM
C[C@@H](Nc1nc(N[C@H](C)C(F)(F)F)nc(C2=C(F)C(O)CCC2)n1)C(F)(F)F (stereo partly drawn) [Compound 83, 3-(4,6-bis(((R)-1,1,1-trifluoropropan-2-yl)amino)-1,3,5-triazin-2-yl)-2-fluorocyclohex-2-en-1,6,6-D3-1-ol]	203 nM	282 nM
[2H]C1([2H])CCC(c2nc(NOC(C)(C)C)nc(Nc3ccnc(C(F)(F)F)c3)n2)=C(F)C1O (stereo not shown) [Compound 89]	57 nM	2960 nM
C[C@@H](Nc1nc(NC2CCC(F)(F)CC2)nc(C2=CC(O)CCC2)n1)C(F)(F)F (stereo partly shown) [Compound 181]	177 nM	476 nM
CC(C)(O)CNc1nc(Nc2ccc3sncc3c2)nc(C2=C(F)C(O)CCC2)n1 (stereo not shown) [Compound 199]	1500 nM	> 10000 nM

SMILES	IC50 [1]	IC50 [2]
Cc1cc(Nc2nc(NOC(C)(C)C)nc(C3=C(F)C(O)CCC3)n2)ccn1 (stereo not shown) [Compound 204]	209 nM	> 10000 nM
Cc1nccc(Nc2nc(NOC(C)(C)C)nc(C3=C(F)C(O)CCC3)n2)n1 (stereo not shown) [Compound 205]	803 nM	> 10000 nM
CCONc1nc(Nc2ccnc(C(F)(F)F)c2)nc(C2=C(F)C(O)C(F)(F)CC2)n1 (stereo not shown) [Compound 212]	63 nM	> 10000 nM
OC1C(F)=C(c2nc(NOCC3CC3)nc(Nc3ccnc(C(F)(F)F)c3)n2)CCC1(F)F (stereo not shown) [Compound 213]	38 nM	> 10000 nM
CC(C)(C)ONc1nc(Nc2ccnc(C(F)(F)F)n2)nc(C2=C(F)C(O)C(F)(F)CC2)n1 (stereo not shown) [Compound 214]	108 nM	> 10000 nM
CC(C)(C)ONc1nc(Nc2ccnc(F)c2)nc(C2=C(F)C(O)C(F)(F)CC2)n1 (stereo not shown) [Compound 215]	79 nM	> 10000 nM
CC(C)(C)ONc1nc(Nc2ccnc(Cl)c2)nc(C2=C(F)C(O)C(F)(F)CC2)n1 (stereo not shown) [Compound 216]	82 nM	8520 nM
CCCONc1nc(Nc2ccnc(C(F)(F)F)c2)nc(C2=C(F)C(O)C(F)(F)CC2)n1 (stereo not shown) [Compound 217]	69 nM	> 10000 nM
OC1C(F)=C(c2nc(Nc3ccnc(C(F)(F)F)c3)nc(N3CCC(F)(F)C3)n2)CCC1(F)F (stereo not shown) [Compound 218]	381 nM	> 10000 nM
OC1C(F)=C(c2nc(Nc3ccnc(C(F)(F)F)c3)nc(NC(C3CC3)C3CC3)n2)CCC1(F)F (stereo not shown) [Compound 220]	59 nM	2880 nM
C[C@@H](Nc1nc(NC2CC2)nc(C2=C(F)C(O)CCC2)n1)C(F)(F)F (stereo partly shown) [Compound 224]	137 nM	4650 nM
CCCNc1nc(N[C@H](C)C(F)(F)F)nc(C2=C(F)C(O)[C@@H](F)CC2)n1 (stereo partly shown) [Compound 231]	37 nM	1530 nM
C[C@@H](Nc1nc(NCC2CC2)nc(C2=C(F)C(O)C(F)(F)CC2)n1)C(F)(F)F (stereo partly drawn) [Compound 234, 3-(4-((Cyclopropylmethyl)amino)-6-(((R)-1,1,1-trifluoropropan-2-yl)amino)-1,3,5-triazin-2-yl)-2,6,6-trifluorocyclohex-2-en-1-ol]	78 nM	1760 nM
C[C@@H](Nc1nc(NCCF)nc(C2=C(F)C(O)CCC2)n1)C(F)(F)F (stereo partly shown) [Compound 240]	984 nM	> 10000 nM
OC1CCCC(c2nc(NCC(F)(F)F)nc(NC3CC(F)(F)C3)n2)=C1F (stereo not shown) [Compound 241]	100 nM	2060 nM
CC(C)Nc1nc(N[C@H](C)C(F)(F)F)nc(C2=C(F)C(O)C(F)(F)CC2)n1 (stereo partly shown) [Compound 244]	53 nM	1080 nM
CC(C)Nc1nc(NC2CC(F)(F)C2)nc(C2=C(F)C(O)C(F)(F)CC2)n1 (stereo not shown) [Compound 261]	94 nM	2230 nM
C[C@@H](Nc1nc(N[C@H](C)C(F)(F)F)nc(C2=C(F)C(O)C(F)CC2)n1)C(F)(F)F (stereo partly drawn) [Compound 266, 3-(4,6-Bis(((R)-1,1,1-trifluoropropan-2-yl)amino)-1,3,5-triazin-2-yl)-2,6-difluorocyclohex-2-en-1-D-1-ol]	33 nM	43 nM
C[C@@H](Nc1nc(N[C@H](C)C(F)(F)F)nc(C2=C(F)C(O)C(F)CC2)n1)C(F)(F)F (stereo partly drawn) [Compound 267, 3-(4,6-Bis(((R)-1,1,1-trifluoropropan-2-yl)amino)-1,3,5-triazin-2-yl)-2,6-difluorocyclohex-2-en-1-D-1-ol]	1330 nM	3570 nM
C[C@@H](Nc1nc(N[C@H](C)C(F)(F)F)nc(C2=C(F)C(O)C(F)CC2)n1)C(F)(F)F (stereo partly drawn) [Compound 268, 3-(4,6-Bis(((R)-1,1,1-trifluoropropan-2-yl)amino)-1,3,5-triazin-2-yl)-2,6-difluorocyclohex-2-en-1-D-1-ol]	349 nM	939 nM
C[C@@H](Nc1nc(N[C@H](C)C(F)(F)F)nc(C2=C(F)C(O)C(F)CC2)n1)C(F)(F)F (stereo partly drawn) [Compound 269, 3-(4,6-Bis(((R)-1,1,1-trifluoropropan-2-yl)amino)-1,3,5-triazin-2-yl)-2,6-difluorocyclohex-2-en-1-D-1-ol]	137 nM	296 nM
[2H]C1(O)C(F)=C(c2nc(NC(C)C)nc(NC3CC(F)(F)C3)n2)CCC1(F)F [Compound 274, 3-(4-((3,3-difluorocyclobutyl)amino)-6-(isopropylamino)-1,3,5-triazin-2-yl)-2,6,6-trifluorocyclohex-2-en-1-D-1-ol]	84 nM	3280 nM
